One assay addresses E. coli RNA polymerase (Escherichia coli, UniProt P0A8T7+P0A8V2). In words: In vitro transcription assay, E. coli RNA polymerase. Type of assay: biochemical. To be noted: for IC50: Table II, read-out: In vitro transcription (E.coli RNAP) IC50 (converted); for relative potency in in vitro transcription assay (FIG. 20a,b): comparison in words. Here is the method:
In vitro transcription reactions. [α^32 P] UTP-incorporated RNA was synthesized in 50 μl reaction volumes containing transcription buffer (50 mM Tris-HCl, pH 8.0, 200 mM KCl, 10 mM MgCl2, 10 mM DTT and 1.5 μM BSA), 1 μg of DNA template, 4 μM UTP containing 5 μCi of [α^32 P] UTP, 400 μM each of ATP, GTP, and CTP. After incubation for 60 minutes at 25° C., the reaction is terminated with 100 μl 10% TCA, which also precipitates the newly transcribed RNA.
Biological Evaluation of (±)-Myxopyronin A & B. The biological activities of the myxypyronins were evaluated with an in vitro transcription assay using E. coli RNA polymerase (FIG. 20a,b). […] As a validation of the in vitro transcription assay, a known transcription inhibitor, rifampicin, was included in the assay.

For a further assay, the system named is S. aureus*. In words: Broth microdilution MIC, S. aureus* mutant strain. The format is cell-based. Particulars: Staphylococcus aureus, read-out: MIC S. aureus*. Here is the method:
(§1) Different dilutions are performed for natural product extracts.
Background: In broth dilution the organism is exposed to a series of concentrations in liquid medium.

In a further assay the test system is S. aureus. Nature of the assay: Broth microdilution MIC, S. aureus. The format is cell-based. To be noted: for MIC: Staphylococcus aureus, Table II. Here is the method: as §1
The subject of assay [1] is E. coli* (mutant strain that has permeabilized cell wall). In words: Broth microdilution MIC, E. coli* mutant with permeabilized cell wall. Particulars: Escherichia coli, read-out: MIC E. coli*. The format is cell-based. The protocol: as §1
In the next assay the test system is E. coli. In words: Broth microdilution MIC, E. coli. Type of assay: cell-based. To be noted: Escherichia coli; Table II. Here is the method:
as §1

In assay [2] the test system is rifampicin susceptible strains. Nature of the assay: microbe, parasite or virus in culture. Particulars: Staphylococcus aureus. The protocol:
(§2) Microdilution Minimal Inhibitory Concentration (MIC) and Minimum Bactericidal Concentration (MBC) Assays
(§3) The MIC is reported as a range between the concentration at which no growth is observed and the concentration of the dilution which immediately followed. Selected inhibitors from the RNA polymerase screen described above were tested for their ability to inhibit bacterial growth in a broth microdilution assay as follows. […] Dilution of antimicrobial agents is performed in a sterile, covered 96-well microliter plate with flat bottom wells (Costar #9017), and each well contains 100 μL of both +/- antimicrobial agent. The final concentrations of the small molecule antimicrobial agents are 100, 50, 25, 12.5, 6.25, 3.12, 1.56, 0.78, 0.39, 0.20, 0.10, and 0.05 μg/mL, respectively. Different dilutions are performed for natural product extracts. They are first diluted 100-fold with Mueller-Hinton broth. The final dilutions of the natural product extracts are 200, 400, 800, 1600, 3200, 6400, 12800, 25600, 51200, 1×105, 2×105, and 4×105 -fold. A 1 % DMSO (no-drug) row is prepared in Mueller-Hinton broth as a control for 100% growth on each plate. A Mueller-Hinton broth only with no bacteria growth is also included as a negative control for each plate. Ampicillin and rifampin are used as positive controls against all bacterial strains in every experiment.
(§4) The overnight culture of a single colony is diluted in sterile Mueller-Hinton broth so that, after inoculation, each well contains approximately 5×10^5 CFU/mL. Within 15 minutes of preparation, […] of the adjusted inoculum suspension is added to the microliter plate. Each well is diluted with an equal volume of the antimicrobial agent/control substance diluted with sterile Mueller-Hinton broth. The inoculated microliter plate is incubated at 35° C. for 16-20 hours. The turbidity of each well is determined by measuring the absorbance at 595 nm on the BioRad Model 3550-UV microplate reader. The rows containing broth only (no cells) serve as a control, and the rows containing the titration of 1% DMSO serve as a control for 100% growth. The average of the broth only controls is subtracted from the average of each duplicate. This value is subsequently normalized to the average of the DMSO controls.

The subject of assay [3] is rifampicin resistant strains. Nature of the assay: microbe, parasite or virus in culture. To be noted: Staphylococcus aureus. Here is the method: as §2, §3, §4

Each structure is given as a SMILES string. ≈ marks a conversion by molar mass, not a printed value. Read-outs that look alike come from different tables or passages of the source.

E. coli RNA polymerase, sequence (P0A8V2 whole entry): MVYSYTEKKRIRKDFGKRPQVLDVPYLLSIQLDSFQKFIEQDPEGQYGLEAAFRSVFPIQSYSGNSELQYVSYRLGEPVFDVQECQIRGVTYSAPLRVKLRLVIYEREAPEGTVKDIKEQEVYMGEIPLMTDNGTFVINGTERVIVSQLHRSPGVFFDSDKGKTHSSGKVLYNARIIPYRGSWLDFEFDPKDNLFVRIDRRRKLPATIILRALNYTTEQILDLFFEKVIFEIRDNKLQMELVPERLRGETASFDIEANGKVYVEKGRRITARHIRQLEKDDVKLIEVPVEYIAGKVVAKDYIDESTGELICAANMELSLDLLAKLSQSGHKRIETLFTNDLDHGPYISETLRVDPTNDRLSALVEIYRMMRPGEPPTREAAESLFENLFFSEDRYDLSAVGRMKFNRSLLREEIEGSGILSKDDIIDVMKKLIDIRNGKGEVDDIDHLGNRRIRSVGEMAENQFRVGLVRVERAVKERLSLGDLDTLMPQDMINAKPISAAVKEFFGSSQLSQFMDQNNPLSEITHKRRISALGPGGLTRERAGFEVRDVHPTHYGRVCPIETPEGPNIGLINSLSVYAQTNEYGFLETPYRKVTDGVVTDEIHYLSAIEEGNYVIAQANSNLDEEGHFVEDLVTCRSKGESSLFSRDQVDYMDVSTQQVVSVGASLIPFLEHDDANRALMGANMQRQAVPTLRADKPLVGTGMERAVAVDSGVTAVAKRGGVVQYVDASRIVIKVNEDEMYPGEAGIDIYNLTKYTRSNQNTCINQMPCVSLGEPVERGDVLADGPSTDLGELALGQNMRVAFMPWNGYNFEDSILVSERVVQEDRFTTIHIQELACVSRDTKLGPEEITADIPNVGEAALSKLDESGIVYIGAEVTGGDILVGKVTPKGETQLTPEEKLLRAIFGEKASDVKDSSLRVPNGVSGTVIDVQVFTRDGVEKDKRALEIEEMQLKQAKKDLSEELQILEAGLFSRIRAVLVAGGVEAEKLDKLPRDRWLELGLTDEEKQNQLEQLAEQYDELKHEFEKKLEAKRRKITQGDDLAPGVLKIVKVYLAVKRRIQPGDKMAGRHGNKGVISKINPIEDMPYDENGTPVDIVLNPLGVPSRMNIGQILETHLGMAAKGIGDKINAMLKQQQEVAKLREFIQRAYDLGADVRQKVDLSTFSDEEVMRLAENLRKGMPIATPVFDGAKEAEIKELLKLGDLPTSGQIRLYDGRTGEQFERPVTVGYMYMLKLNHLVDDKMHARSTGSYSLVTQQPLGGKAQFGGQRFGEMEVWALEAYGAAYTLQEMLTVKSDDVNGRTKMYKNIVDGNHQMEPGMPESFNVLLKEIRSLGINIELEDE
E. coli RNA polymerase, sequence (P0A8T7 whole entry): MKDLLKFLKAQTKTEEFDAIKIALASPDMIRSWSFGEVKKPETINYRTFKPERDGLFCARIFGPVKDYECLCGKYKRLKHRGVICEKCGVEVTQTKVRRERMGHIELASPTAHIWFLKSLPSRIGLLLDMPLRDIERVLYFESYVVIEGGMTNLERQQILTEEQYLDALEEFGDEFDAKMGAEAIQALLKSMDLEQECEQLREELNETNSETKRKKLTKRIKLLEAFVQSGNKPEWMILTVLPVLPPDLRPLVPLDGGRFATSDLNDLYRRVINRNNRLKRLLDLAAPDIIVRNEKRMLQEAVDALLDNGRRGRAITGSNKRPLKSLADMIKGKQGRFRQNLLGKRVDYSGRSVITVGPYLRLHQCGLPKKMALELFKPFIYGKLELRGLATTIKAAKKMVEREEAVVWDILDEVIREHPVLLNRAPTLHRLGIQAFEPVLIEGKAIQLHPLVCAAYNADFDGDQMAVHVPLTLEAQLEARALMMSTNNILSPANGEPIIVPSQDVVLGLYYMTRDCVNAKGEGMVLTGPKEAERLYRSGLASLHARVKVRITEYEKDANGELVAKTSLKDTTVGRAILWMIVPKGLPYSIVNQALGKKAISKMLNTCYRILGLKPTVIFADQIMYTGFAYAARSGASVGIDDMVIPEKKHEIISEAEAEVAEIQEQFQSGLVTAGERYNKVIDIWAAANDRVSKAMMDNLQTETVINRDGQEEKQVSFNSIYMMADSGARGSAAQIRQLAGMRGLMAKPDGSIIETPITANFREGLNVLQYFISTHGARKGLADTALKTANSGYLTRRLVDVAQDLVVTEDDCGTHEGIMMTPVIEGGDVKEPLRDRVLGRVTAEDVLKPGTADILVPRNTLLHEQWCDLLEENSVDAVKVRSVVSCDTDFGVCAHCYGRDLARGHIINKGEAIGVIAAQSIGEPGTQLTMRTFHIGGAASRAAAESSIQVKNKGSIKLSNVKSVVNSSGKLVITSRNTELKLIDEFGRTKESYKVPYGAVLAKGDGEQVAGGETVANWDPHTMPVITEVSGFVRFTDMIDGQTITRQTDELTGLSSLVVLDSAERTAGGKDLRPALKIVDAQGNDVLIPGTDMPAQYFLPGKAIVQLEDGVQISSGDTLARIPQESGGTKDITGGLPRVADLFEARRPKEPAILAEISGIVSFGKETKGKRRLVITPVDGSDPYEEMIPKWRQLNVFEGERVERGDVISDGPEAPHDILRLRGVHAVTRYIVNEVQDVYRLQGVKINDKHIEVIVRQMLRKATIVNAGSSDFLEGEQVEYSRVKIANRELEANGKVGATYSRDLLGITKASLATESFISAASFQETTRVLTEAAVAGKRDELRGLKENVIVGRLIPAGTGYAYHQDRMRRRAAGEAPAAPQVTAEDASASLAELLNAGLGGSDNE
E. coli RNA polymerase, sequence (P0A7Z4 whole entry partner): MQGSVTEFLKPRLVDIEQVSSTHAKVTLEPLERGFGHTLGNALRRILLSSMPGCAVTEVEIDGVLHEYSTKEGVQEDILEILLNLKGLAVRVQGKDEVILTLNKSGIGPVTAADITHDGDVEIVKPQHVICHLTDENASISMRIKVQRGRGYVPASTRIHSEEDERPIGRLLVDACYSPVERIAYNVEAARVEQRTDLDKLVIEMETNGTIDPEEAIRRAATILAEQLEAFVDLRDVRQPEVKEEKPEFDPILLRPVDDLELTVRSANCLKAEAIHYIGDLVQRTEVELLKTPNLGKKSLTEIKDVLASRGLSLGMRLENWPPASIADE
E. coli RNA polymerase, sequence (P0A800 whole entry partner): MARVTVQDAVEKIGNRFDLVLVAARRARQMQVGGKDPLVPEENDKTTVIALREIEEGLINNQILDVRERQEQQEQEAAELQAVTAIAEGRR

One may read the IC50 as the concentration needed to halve the response being measured. With `CCC/C(C)=C/C=C(\C)C(=O)c1c(O)cc(C(C)CC/C=C/NC(=O)OC)oc1=O` (racemic) [(±)-Myxo A, (±)-Myxopyronin A], on E. coli RNA polymerase, the IC50 was 47.9 µM. The “relative potency in in vitro transcription assay (FIG. 20a,b)” value at E. coli RNA polymerase is “equally potent as the natural product mixtures”. For the same compound, the MIC with S. aureus* is 8 µg/mL (≈ 19.2 µM); in the assay with S. aureus it was 15 µg/mL (≈ 35.9 µM); in assay [1] it was 4 to 8 µg/mL (≈ 9.58 to 19.2 µM); in the assay with E. coli, more than 30 µg/mL.

As to `CCCC/C(C)=C/C=C(\C)C(=O)c1c(O)cc(C(C)CC/C=C/NC(=O)OC)oc1=O` (racemic) [(±)-Myxo B, (±)-Myxopyronin B], on E. coli RNA polymerase, the IC50 was 11.6 µM. In addition, the “relative potency in in vitro transcription assay (FIG. 20a,b)” value on E. coli RNA polymerase is on record as “more potent molecule than A”. For the same compound, the MIC with S. aureus* was 0.5 µg/mL (≈ 1.16 µM); with S. aureus, 0.5 µg/mL (≈ 1.16 µM); in assay [1] it was 2 µg/mL (≈ 4.63 µM); in the assay with E. coli, more than 30 µg/mL. In the assay with S. aureus (MIC values of Table II, B versus A), the “fold more potent cell-based activities than myxopyronin A” value is on record as “up to 30 fold”.

With `CO[C@H]1/C=C/O[C@@]2(C)Oc3c(C)c(O)c4c(O)c(c(/C=N/N5CCN(C)CC5)c(O)c4c3C2=O)NC(=O)/C(C)=C\C=C\[C@H](C)[C@H](O)[C@@H](C)[C@@H](O)[C@@H](C)[C@H](OC(C)=O)[C@@H]1C` [rifampicin], the MIC in assay [2] (read-out: MIC against susceptible strains, Example 9 statement b281) is 10 µM (≈ 8.23 µg/mL); in assay [2] (read-out: MIC against susceptible strains, background statement b31), approximately 0.01 µM (≈ 0.00823 µg/mL); in assay [3] (read-out: MIC against resistant strains), more than 10 µM; in assay [3] (read-out: MIC against rifampicin resistant strains), more than 100 µM.
